In one series the test system is SGC-7901. Nature of the series: cells. The note with it: Homo sapiens, SGC-7901, 48 h.
Series [1] deals with SW480. Put plainly: Ratio of 5-fluorouracil IC50 to compound IC50 for human SW480 cells after 48 hrs by MTT assay. The format is functional. In general terms: Tetrazolium assays rely on reduction of a dye to a coloured formazan, in cell work by metabolically active cells.
Series [2] concerns HeLa. Nature of the series: cells. The note with it: Homo sapiens, 48 h.
Description: Cytotoxicity against human HeLa cells after 48 hrs by MTT assay
The next series concerns MDA-MB-231. Nature of the series: cells. The conditions noted are these: Homo sapiens, MDA-MB-231, 48 h.
Another series is described as follows: physchem. The conditions noted are these: octanol/water.
Series [3] has as its system A549. Nature of the series: cells. The note with it: Homo sapiens, A549, 48 h.
Description: Cytotoxicity against human A549 cells after 48 hrs by MTT assay
The subject of series [4] is SW480. Nature of the series: cells. The note with it: Homo sapiens, SW480, 48 h.
Description: Cytotoxicity against human SW480 cells after 48 hrs by MTT assay
Series [5] relates to HeLa. Put plainly: Ratio of 5-fluorouracil IC50 to compound IC50 for human HeLa cells after 48 hrs by MTT assay. The format is functional.
A short description of a further series: cells. The note with it: Homo sapiens, QGY7701, 48 h.
Series [6] has as its system A549. Nature of the series: Ratio of 5-fluorouracil IC50 to compound IC50 for human A549 cells after 48 hrs by MTT assay. It is filed as functional.

Description for MDA-MB-231: Cytotoxicity against human MDA-MB-231 cells after 48 hrs by MTT assay
Description for SGC-7901: Cytotoxicity against human SGC7901 cells after 48 hrs by MTT assay
Description for physchem: Lipophilicity, log P of the compound

Turning to `COc1ccc(C(=O)c2ccc(=O)n(-c3ccccc3C)c2)c(OC(=O)OCc2ccccc2)c1`, the IC50 in the series on SGC-7901 came out at 690 nM; in the series on HeLa [2], 460 nM; in the series on MDA-MB-231 it was 750 nM; with A549 [3], 590 nM; in the series on SW480 [4], 520 nM; in the series “cells”, 4330 nM. The “Ratio IC50” value in the series on SW480 [1] was found to be 30.2; in the series with HeLa [5] it was 35.9; in the series with A549 [6] it was 9.5. This compound showed a logP in the series “physchem” of 4.23.

On to `COc1ccc(C(=O)C2=CC(c3ccccc3C)C(=O)C=C2)c(OCc2cn(Cc3ccc(C(C)(C)C)cc3)nn2)c1` (configuration not stated), for which the IC50 came out at 3520 nM with SGC-7901; 340 nM in the series on HeLa [2]; 3350 nM with MDA-MB-231; 1730 nM in the series with A549 [3]; 110 nM in the series with SW480 [4]; 3390 nM in the series “cells”. Further, the results for the “Ratio IC50” value in the series with SW480 [1] and with HeLa [5] were 142.7 and 48.5, respectively.

Turning to `COc1ccc(C(=O)c2ccc(=O)n(-c3ccccc3C)c2)c(OCc2cn(Cc3ccc(Cl)cc3)nn2)c1`, the IC50 is 1100 nM in the series with SGC-7901; 540 nM with HeLa [2]; 320 nM in the series on MDA-MB-231; 860 nM with A549 [3]; 210 nM in the series with SW480 [4]; above 30000 nM in “cells”. The “Ratio IC50” value stood at 74.8 with SW480 [1], 30.6 in the series on HeLa [5] and 6.5 in the series with A549 [6]. Besides, in “physchem”, the logP was determined as 4.05.

Consider `COc1ccc(C(=O)c2ccc(=O)n(-c3ccccc3C)c2)c(OC(=O)Cc2ccccc2Cl)c1`, for which the IC50 with SGC-7901 was determined as 1450 nM; with HeLa [2], 870 nM; in the series on MDA-MB-231, 2970 nM; in the series with A549 [3], 1940 nM; in the series on SW480 [4], 1170 nM; in “cells”, 6050 nM. The same compound showed a logP in “physchem” of 4.4.

On to `COc1ccc(C(=O)c2ccc(=O)n(-c3ccccc3C)c2)c(OCc2cn(Cc3ccccc3C#N)nn2)c1`, for which the half-inhibitory concentration (IC50) with SGC-7901 is above 30000 nM; with HeLa [2], 8050 nM; in the series with MDA-MB-231, above 30000 nM; in the series with A549 [3] it was 8320 nM; in the series on SW480 [4], above 30000 nM; in the series “cells” it was above 30000 nM. The compound further showed a logP in the series “physchem” of 3.6.

One may read the IC50 as the concentration that inhibits the measured activity by half. The low end stands for greater potency in that assay, the high end for weaker potency in that assay. One may read the logP as a log measure of how a compound divides between an organic and an aqueous phase. Lower therefore signals lower lipophilicity.

The values are drawn from ChEMBL document CHEMBL2417411, “Design and synthesis of novel 2'-hydroxy group substituted 2-pyridone derivatives as anticancer agents” (Eur J Med Chem, 2013).
